Two compounds from patent publication US20230091908A1, “FLUORENE DERIVATIVE, METHOD FOR PRODUCING SAME, AND APPLICATION OF SAME” (Osaka Gas Chemicals Co., Ltd., priority 2019, published 2023) can be followed below.

Data set [1] in a line: 5% mass reduction temperature (TG-DTA). The class given is physicochemical. How it is done: (5% Mass Reduction Temperature)
The temperature, at which the mass of the sample is reduced by 5% by mass was measured using a Thermogravimeter-Differential Thermal Analyzer (TG-DTA) (manufactured by SII NanoTechnology Inc., “TG/DTA6200”) in an atmosphere of a nitrogen gas, at a heating rate (programming rate) of 10° C./min. The sample (cured product) was prepared as follows.
That is, 3 parts by mass of Irgacure 184 (manufactured by BASF Japan Ltd.) as a photopolymerization initiator was added to 100 parts by mass of the total amount of the acrylate compound (polymerization component) shown in Table 1 or 3 weighed in a brown bottle, and the mixture was heated to 120° C. for dissolution to obtain a curable composition. An UV irradiation (500 mJ/cm^2) was repeated 4 times on the obtained curable composition to prepare the cured product.

Data set [2] is described as follows: Solubility in various solvents. It counts as physicochemical. On the set-up: key to Solubility: A: Soluble; B: Some soluble, but turbid; C: Insoluble. To be noted: for Solubility: stirred at 50° C. for 30 minutes. How it is done: The sample 0.3 g was weighed in a sample bottle, the solvent was added by 0.7 g (condition 1: solid content of 30% by mass) or 1.0 g (condition 2: solid content of 23% by mass), and each of the obtained mixed solutions was stirred at a temperature of 50° C. for 30 minutes by using a bioshaker (manufactured by TAITEC CORPORATION, “BR-43FH”). Each of the mixed solutions after stirring was evaluated according to the following criteria. The used solvents were methyl ethyl ketone (MEK), methyl isobuthyl ketone (MIBK), ethyl acetate, propylene glycol monomethyl ether acetate (PGMEA), toluene, dimethylformamide (DMF), or cyclohexanone.
B: Some soluble, but turbid

As for `C=CC(=O)OCCCC1(CCCOC(=O)C=C)c2cc(-c3ccc4ccccc4c3)ccc2-c2ccc(-c3ccc4ccccc4c3)cc21` [DNPOA, 9,9-bis(3-acryloyloxypropyl)-2,7-di(2-naphthyl)fluorene], the melting point (usually the temperature of the solid-liquid transition) stood at 120 °C. In addition, the “5% mass reduction temperature” value in data set [1] (cured product of the compound (UV cured, Irgacure 184), nitrogen, 10° C./min) is 382 °C. Moreover, the Solubility result in data set [2] (Cyclohexanone, solid content of 30% by mass) is “A”. Moreover, in data set [2] (DMF, solid content of 30% by mass), the Solubility entry was “A”. In data set [2] (Ethyl acetate, solid content of 30% by mass), the Solubility entry is “A”. For the same compound, the Solubility entry in data set [2] (MEK, solid content of 30% by mass) is on record as “A”. Further, in data set [2] (MIBK, solid content of 30% by mass), the Solubility result is recorded as “A”. Also, in data set [2] (PGMEA, solid content of 23% by mass), the Solubility entry was “A”. The Solubility result in data set [2] (PGMEA, solid content of 30% by mass) is listed as “B”. Moreover, the Solubility result in data set [2] (Toluene, solid content of 30% by mass) is reported as “A”. In data set [2] (summary of Table 2), the “Solubility in various solvents (summary in words)” value was “high solubility in various solvents”.
Turning to `COC(=O)CCC1(CCC(=O)OC)c2cc(-c3ccc4ccccc4c3)ccc2-c2ccc(-c3ccc4ccccc4c3)cc21` [DNFDP-m, 9,9-bis(2-methoxycarbonylethyl)-2,7-di(2-naphthyl)fluorene], the “5% mass reduction temperature” value in data set [1] (compound as obtained) was determined as 390 °C.
